In patent US9862707B2, “TrkA kinase inhibitors, compositions and methods thereof” (Merck Sharp & Dohme Corp., priority 2014, dated 2018):

Target: human TrkA receptor (Homo sapiens (Human), UniProt P04629)
Assay: TrkA functional activity, DiscoverX PathHunter assay
Type: cell-based
Conditions: U2OS cells expressing human TrkA-PK, Shc1-EA and p75NTR; compound 1 h, then NGF at ~80% of maximal response for 3 h; luminescence
Description: TrkA functional activity was measured using a DiscoverX PathHunter assay. In this assay, U2OS cells express the human TrkA receptor as a fusion with the weakly complementing fragment of B-galactosidase, which DiscoverX calls “Prolink (PK)”; additionally, Shc1 is fused with a larger fragment, which is called “Enzyme Acceptor (EA)”. Activation of the TrkA receptor, upon NGF addition, results in the kinase domain being phosphorylated, resulting in subsequent recruitment of Shc1-EA protein. That recruitment results in an active B-galactosidase enzyme that is detected by addition of a chemiluminescent substrate. The human p75^NTR protein was also expressed as a co-receptor for NGF.
All reagents were purchased from DiscoverX, except for the receptor agonists (NGF, BDNF, NT3) which were purchased from Peprotech. Cells were expanded and frozen into cryovials, and stored in the vapor phase of liquid nitrogen, and thawed immediately before use. Thawed cells were added to a 384-well plate at 7500 cells/well, and allowed to incubate overnight. Compound at various concentrations was added the following morning and allowed to incubate on cells for 1 h. Then, NGF was added at a concentration sufficient to elicit ˜80% of a maximal response and allowed to incubate for 3 h at ambient temperature. DiscoverX PathHunter detection reagent was then added and the plate was further incubated for 1 h in the dark. The plate was then read via luminescence on the Perkin Elmer Envision.

Sequence of human TrkA receptor (P04629 33-796): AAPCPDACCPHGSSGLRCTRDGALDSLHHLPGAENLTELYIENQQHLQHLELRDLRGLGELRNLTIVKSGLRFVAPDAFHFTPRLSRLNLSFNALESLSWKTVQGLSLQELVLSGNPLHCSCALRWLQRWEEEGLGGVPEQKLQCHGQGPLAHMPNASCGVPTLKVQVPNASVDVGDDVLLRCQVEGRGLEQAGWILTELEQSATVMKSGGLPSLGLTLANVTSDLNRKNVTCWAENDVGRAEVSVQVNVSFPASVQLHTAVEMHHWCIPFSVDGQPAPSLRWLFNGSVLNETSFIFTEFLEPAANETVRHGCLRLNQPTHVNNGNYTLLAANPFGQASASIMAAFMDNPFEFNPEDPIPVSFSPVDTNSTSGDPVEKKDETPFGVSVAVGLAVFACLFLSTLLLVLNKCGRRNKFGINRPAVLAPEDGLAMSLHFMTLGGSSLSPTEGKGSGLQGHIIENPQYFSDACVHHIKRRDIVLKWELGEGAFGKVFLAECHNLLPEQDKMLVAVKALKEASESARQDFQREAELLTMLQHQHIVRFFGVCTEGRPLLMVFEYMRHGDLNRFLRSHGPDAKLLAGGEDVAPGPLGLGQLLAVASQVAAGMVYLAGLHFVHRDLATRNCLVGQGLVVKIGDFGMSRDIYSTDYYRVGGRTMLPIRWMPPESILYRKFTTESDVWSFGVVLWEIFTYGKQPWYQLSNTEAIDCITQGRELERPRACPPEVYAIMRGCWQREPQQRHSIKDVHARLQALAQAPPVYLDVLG

Structure (SMILES)	IC50 [nM]
CC(O)c1cnc2c(NC(=O)c3cc(-c4ncccn4)c(C(F)(F)F)cc3F)n(-c3ccccc3)nc2c1 (single isomer, unassigned; isomer b) [Compound 30, (R or S)-2-fluoro-N-[6-(1-hydroxyethyl)-2-phenyl-2H-pyrazolo[4,3-b]pyridin-3-yl]-5-pyrimidin-2-yl-4-(trifluoromethyl)benzamide, isomer B]	1.1
NC(=O)c1ccc2c(NC(=O)c3cc(-c4ncccn4)c(C(F)(F)F)cc3F)n(-c3ccccc3)nc2c1 [Compound 73, 3-(2-Fluoro-5-(pyrimidin-2-yl)-4-(trifluoromethyl)benzamido)-2-phenyl-2H-indazole-6-carboxamide]	3.1
O=C(Nc1c2ccc(C(O)C(F)(F)F)cc2nn1-c1ccccc1)c1cc(-c2ncccn2)c(C(F)(F)F)cc1F (single isomer, unassigned) [Compound 52, (R or S)-2-Fluoro-N-{2-phenyl-6-[(1S)-2,2,2-trifluoro-1-hydroxyethyl]-2H-indazol-3-yl}-5-pyrimidin-2-yl-4-(trifluoromethyl)benzamide, isomers A and B]	2.8
CC(O)c1ccc2nn(-c3ccccc3)c(NC(=O)c3ccc(C(F)(F)F)c(-c4ccn(C)n4)c3)c2c1 (single isomer, unassigned; isomer b) [Compound 24, (R or S)-N-[5-(1-hydroxyethyl)-2-phenyl-2H-indazol-3-yl]-3-(1-methyl-1H-pyrazol-3-yl)-4-(trifluoromethyl)benzamide, isomer B]	2.4
O=C(Nc1c2ccc(C(O)C(F)F)cc2nn1-c1ccccc1)c1cc(-c2ncccn2)c(C(F)(F)F)cc1F (single isomer, unassigned; isomer b) [Compound 57, (R or S)-N-[6-(2,2-difluoro-1-hydroxyethyl)-2-phenyl-2H-indazol-3-yl]-2-fluoro-5-pyrimidin-2-yl-4-(trifluoromethyl)benzamide, isomer B]	13
O=C(Nc1c2ncc(C(O)CO)cc2nn1-c1ccccc1)c1cc(-c2ncccn2)c(C(F)(F)F)cc1Cl (single isomer, unassigned; isomer a) [Compound 64, (R or S)-2-chloro-N-[6-(1,2-dihydroxyethyl)-2-phenyl-2H-pyrazolo[4,3-b]pyridin-3-yl]-5-pyrimidin-2-yl-4-(trifluoromethyl)benzamide, isomer A]	15
Cn1ccc(-c2cc(C(=O)Nc3c4cccnc4nn3-c3ccccc3)c(F)cc2C(F)(F)F)n1 [Compound 6, 2-fluoro-5-(1-methyl-1H-pyrazol-3-yl)-N-(2-phenyl-2H-pyrazolo[3,4-b]pyridin-3-yl)-4-(trifluoromethyl)benzamide]	6.1
Cc1ccccc1-n1nc2cc(C(N)=O)ccc2c1NC(=O)c1cc(-c2ccn(C)n2)c(C(F)(F)F)cc1F [Compound 77, 3-(2-Fluoro-5-(1-methyl-1H-pyrazol-3-yl)-4-(trifluoromethyl)benzamido)-2-(o-tolyl)-2H-indazole-6-carboxamide]	1.3
CC(C)(O)c1cnc2c(NC(=O)c3cc(-c4ncccn4)c(C(F)(F)F)cc3F)n(-c3ccccc3)nc2c1 [Compound 40, 2-Fluoro-N-(6-(2-hydroxypropan-2-yl)-2-phenyl-2H-pyrazolo[4,3-b]pyridin-3-yl)-5-(pyrimidin-2-yl)-4-(trifluoromethyl)benzamide]	3.9
CC(C)(O)c1ccc2c(NC(=O)c3cc(-c4ncccn4)c(C(F)(F)F)cc3Cl)n(-c3ccccc3)nc2c1 [Compound 46, 2-chloro-N-[6-(1-hydroxy-1-methylethyl)-2-phenyl-2H-indazol-3-yl]-5-pyrimidin-2-yl-4-(trifluoromethyl)benzamide]	1.7
Cn1ccc(-c2cc(C(=O)Nc3c4ccc([C@H](N)C(F)(F)F)cc4nn3-c3ccccc3)ccc2C(F)(F)F)n1 [Compound 101, (S)—N-(6-(1-Amino-2,2,2-trifluoroethyl)-2-phenyl-2H-indazol-3-yl)-3-(1-methyl-1H-pyrazol-3-yl)-4-(trifluoromethyl)benzamide]	1.8
Cn1ccc(-c2cc(C(=O)Nc3c4cc(C5(O)CC5)ccc4nn3-c3ccccc3)ccc2C(F)(F)F)n1 [Compound 51, N-[5-(1-hydroxycyclopropyl)-2-phenyl-2H-indazol-3-yl]-3-(1-methyl-1H-pyrazol-3-yl)-4-(trifluoromethyl)benzamide]	6.4
CC(=O)NCc1cccc(-n2nc3cccnc3c2NC(=O)c2cc(-c3ncccn3)c(C(F)(F)F)cc2F)c1 [Compound 9, N-(2-{3-[(acetylamino)methyl]phenyl}-2H-pyrazolo[4,3-b]pyridin-3-yl)-2-fluoro-5-pyrimidin-2-yl-4-(trifluoromethyl)benzamide]	744
CC(O)c1ccc2c(NC(=O)c3cc(-c4ncccn4)c(C(F)(F)F)cc3F)n(-c3ccccc3)nc2c1 (single isomer, unassigned) [Compound 20, (R and S)-2-Fluoro-N-(6-(1-hydroxyethyl)-2-phenyl-2H-indazol-3-yl)-5-(pyrimidin-2-yl)-4-(trifluoromethyl)benzamide, isomers A and B]	2.9
O=C(Nc1c2ccc(CCO)cc2nn1-c1ccccc1)c1cc(-c2ncccn2)c(C(F)(F)F)cc1F [Compound 60, 2-Fluoro-N-(6-(2-hydroxyethyl)-2-phenyl-2H-indazol-3-yl)-5-(pyrimidin-2-yl)-4-(trifluoromethyl)benzamide]	2.2
CC(O)c1cnc2c(NC(=O)c3cc(-c4ccn(C)n4)c(C(F)(F)F)cc3F)n(-c3ccccc3)nc2c1 (single isomer, unassigned; isomer b) [Compound 34, (R or S)-2-fluoro-N-[6-(1-hydroxyethyl)-2-phenyl-2H-pyrazolo[4,3-b]pyridin-3-yl]-5-(1-methyl-1H-pyrazol-3-yl)-4-(trifluoromethyl)benzamide, isomer B]	0.48
Cn1ccc(-c2cc(C(=O)Nc3c4ncc(C(C)(C)O)cc4nn3-c3ccccc3)ccc2C(F)(F)F)n1 [Compound 48, N-[6-(1-hydroxy-1-methylethyl)-2-phenyl-2H-pyrazolo[4,3-b]pyridin-3-yl]-3-(1-methyl-1H-pyrazol-3-yl)-4-(trifluoromethyl)benzamide]	5.2
O=C(Nc1c2nc(CO)ccc2nn1-c1ccccc1)c1cc(-c2ncccn2)c(C(F)(F)F)cc1Cl [Compound 17, 2-chloro-N-[5-(hydroxymethyl)-2-phenyl-2H-pyrazolo[4,3-b]pyridin-3-yl]-5-pyrimidin-2-yl-4-(trifluoromethyl)benzamide]	18
CC(O)c1ccc2nn(-c3ccccc3)c(NC(=O)c3cc(-c4cc[nH]n4)c(C(F)(F)F)cc3F)c2n1 (single isomer, unassigned; isomer a) [Compound 31, (R or S)-2-fluoro-N-[5-(1-hydroxyethyl)-2-phenyl-2H-pyrazolo[4,3-b]pyridin-3-yl]-5-(1H-pyrazol-3-yl)-4-(trifluoromethyl)benzamide, isomer A]	5.2
Cn1ccc(-c2cc(C(=O)Nc3c4cc(C(N)=O)ccc4nn3-c3ccccc3)ccc2C(F)(F)F)n1 [Compound 79, 3-({[3-(1-methyl-1H-pyrazol-3-yl)-4-(trifluoromethyl)phenyl]carbonyl}amino)-2-phenyl-2H-indazole-5-carboxamide]	11
O=C(Nc1c2ccc(C(O)C(F)(F)F)cc2nn1-c1ccccc1)c1cc(-c2ncccn2)c(C(F)(F)F)cc1F (single isomer, unassigned) [Compound 53, (R or S)-2-Fluoro-N-{2-phenyl-6-[(1S)-2,2,2-trifluoro-1-hydroxyethyl]-2H-indazol-3-yl}-5-pyrimidin-2-yl-4-(trifluoromethyl)benzamide, isomers A and B]	29
O=C(Nc1c2cc(CO)ccc2nn1-c1ccccc1)c1cc(-c2ncccn2)c(C(F)(F)F)cc1F [Compound 12, 2-fluoro-N-[5-(hydroxymethyl)-2-phenyl-2H-indazol-3-yl]-5-pyrimidin-2-yl-4-(trifluoromethyl)benzamide]	2.6
Cn1ccc(-c2cc(C(=O)Nc3c4ccc(C(N)=O)cc4nn3-c3ccccc3)c(F)cc2C(F)(F)F)n1 [Compound 74, 3-(2-Fluoro-5-(1-methyl-1H-pyrazol-3-yl)-4-(trifluoromethyl)benzamido)-2-phenyl-2H-indazole-6-carboxamide]	0.57
CC(O)c1ccc2c(NC(=O)c3cc(-c4ncccn4)c(C(F)(F)F)cc3Cl)n(-c3ccccc3)nc2c1 (single isomer, unassigned; isomer b) [Compound 38, (R or S)-2-chloro-N-[6-(1-hydroxyethyl)-2-phenyl-2H-indazol-3-yl]-5-pyrimidin-2-yl-4-(trifluoromethyl)benzamide, isomer B]	4.9
NC(=O)Cc1ccc2c(NC(=O)c3cc(-c4ncccn4)c(C(F)(F)F)cc3F)n(-c3ccccc3)nc2c1 [Compound 94, N-(6-(2-Amino-2-oxoethyl)-2-phenyl-2H-indazol-3-yl)-2-fluoro-5-(pyrimidin-2-yl)-4-(trifluoromethyl)benzamide]	4.4
NC(=O)c1ccc2c(NC(=O)c3cc(-c4cc[nH]n4)c(C(F)(F)F)cc3F)n(-c3ccccc3)nc2c1 [Compound 78, 3-({[2-fluoro-5-(1H-pyrazol-3-yl)-4-(trifluoromethyl)phenyl]carbonyl}amino)-2-phenyl-2H-indazole-6-carboxamide]	3.6
O=C(Nc1c2cc(C3(O)CC3)ccc2nn1-c1ccccc1)c1cc(-c2ncccn2)c(C(F)(F)F)cc1F [Compound 50, 2-Fluoro-N-(5-(1-hydroxycyclopropyl)-2-phenyl-2H-indazol-3-yl)-5-(pyrimidin-2-yl)-4-(trifluoromethyl)benzamide]	1.6
O=C(NCCO)c1ccc2c(NC(=O)c3cc(-c4ncccn4)c(C(F)(F)F)cc3F)n(-c3ccccc3)nc2c1 [Compound 92, 3-({[2-fluoro-5-pyrimidin-2-yl-4-(trifluoromethyl)phenyl]carbonyl}amino)-N-(2-hydroxyethyl)-2-phenyl-2H-indazole-6-carboxamide]	11
